These results are taken from US20130281399A1, “TREATMENT OF DISEASES BY EPIGENETIC REGULATION” (RVX Therapeutics Inc., priority 2012, published 2013).

In data set [1] the test system is IL-6. The note with it: cited from earlier work.
Data set [2] concerns NUT (nuclear protein in testis) midline carcinoma (NMC). The following applies: Filippakopoulos et al. (2010); cited from earlier work.
Data set [3] concerns multiple myeloma. The following applies: associated with cell cycle arrest and cellular senescence; Delmore et al. (2011); cited from earlier work.
Data set [4] addresses T1, Brd4 bromodomain 1 (Homo sapiens, UniProt O60885).
T1 construct: made in house; host or cells: E. coli BL21(DE3)
Briefly: Inhibition of binding of tetra-acetylated histone H4 to Brd4 bromodomain 1 (TR-FRET). The following applies: His-tagged Brd4 bromodomain 1 200 nM, tetra-acetylated histone H4 peptide 25-50 nM, 2 hours room temperature. In short, it runs like this: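 His-tagged Brd4 BD1 was expressed in E. coli and purified by Ni affinity and size exclusion. TR-FRET competition with tetra-acetylated H4 was run in 30 mM HEPES pH 7.4, 30 mM NaCl, 0.3 mM CHAPS, 20 mM phosphate pH 7.0, 320 mM KF and 0.08% BSA, with 0.2% DMSO.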

For data set [5], the system named is c-myc. Briefly: Inhibition of c-myc expression in MV4-11 cells (real-time PCR of mRNA). The note with it: 3 hours at 37° C. Further details: key: Active: Compounds with an IC50 value less than 30 uM were deemed to be active. It is filed as cell-based, Human. On the procedure:
MV4-11 cells (2.5×10^4 cells) were plated in 96 well U-bottom plates with test compound or DMSO (0.1%), and incubated for 3 hours at 37° C. Cells were then harvested by centrifugation, lysed, and mRNA was isolated using the mRNA catcher plus kit (Invitrogen). Reverse transcription of the mRNA and duplex amplification of the c-myc and cyclophilin cDNAs was performed using the RNA Ultrasense kit (Invitrogen) and a ViiA7 real-time PCR machine (Applied Biosystems). IC50 values were determined from a dose response curve.

Data set [6] has as its system Human AML MV-4-11 cells. In words: Inhibition of cell proliferation in human AML MV-4-11 cells (CellTiter Aqueous One). It is filed as cell-based. Further details: key: Active: Compounds with an IC50 value less than 30 μM were deemed to be active. The note with it: 72 hours, 30 μM to 0.2 μM. On the procedure:
MV4-11 cells: 96-well plates were seeded with 5×10^4 cells per well of exponentially growing human AML MV-4-11 (CRL-9591) cells and immediately treated with two-fold dilutions of test compounds, ranging from 30 μM to 0.2 μM. Triplicate wells were used for each concentration, as well as a media only and three DMSO control wells. The cells and compounds were incubated at 37° C., 5% CO2 for 72 hours before adding 20 μL of the CellTiter Aqueous One Solution (Promega) to each well and incubated at 37° C., 5% CO2 for an additional 3-4 hours. The absorbance was taken at 490 nm in a spectrophotometer and the percentage of proliferation relative to DMSO-treated cells was calculated after correction from the blank well. IC50 were calculated using the GraphPad Prism software.

For data set [7] the following is noted: murine model; Lamotte et al. (2012); cited from earlier work.

On to `CCNC(=O)C[C@@H]1N=C(c2ccc(Cl)cc2)c2cc(OC)ccc2-n2c(C)nnc21` [I-BET], for which, in data set [1], the “IL-6 expression in vivo” value is listed as “decrease IL-6 expression”.

`Cc1sc2c(c1C)C(c1ccc(Cl)cc1)=N[C@@H](CC(=O)OC(C)(C)C)c1nnc(C)n1-2` [JQ1]: the “antitumor activity in murine xenograft models of NMC” value in data set [2] is on record as “potent antitumor activity”. Also, in data set [3], the “antiproliferation in multiple myeloma” value is reported as “potent antiproliferator”.

As to `COc1cc(OC)c2c(=O)[nH]c(-c3ccc(N4CCN(C(C)C)CC4)cc3)nc2c1` [Example 10, 2-(4-(4-Isopropylpiperazin-1-yl)phenyl)-5,7-dimethoxyquinazolin-4(3H)-one], the “FRET activity (<50 uM)” value in data set [4] was “Active”. Besides, the “c-myc activity (<30 uM)” value in data set [5] is “Active”. Besides, the “cell proliferation activity (<30 uM)” value in data set [6] is on record as “Inactive”.

On to `COc1cc(OCCOCc2ccccc2)cc2nc(-c3ccncc3)[nH]c(=O)c12` [Example 98, 7-(2-(Benzyloxy)ethoxy)-5-methoxy-2-(pyridin-4-yl)quinazolin-4(3H)-one], for which the melting point lay within 228.2 to 229.9 °C. In data set [4], the “FRET activity (<50 uM)” value is “Inactive”.

In the case of `COc1cc2c(cc1-c1c(C)noc1C)ncc1[nH]c(=O)n([C@H](C)c3ccccn3)c12` [I-BET151], the “IL-6 expression in vivo” value in data set [1] is reported as “decrease IL-6 expression”. Also, the “bacterial-induced inflammation and sepsis” value in data set [7] is “suppress bacterial-induced inflammation and sepsis”.

Turning to `Cc1cc(-c2nc3cc(Cl)cc(Cl)c3c(=O)[nH]2)cc(C)c1OCCN1CCCC1` [Example 67, 5,7-Dichloro-2-(3,5-dimethyl-4-(2-(pyrrolidin-1-yl)ethoxy)phenyl)quinazolin-4(3H)-one], the melting point is 209 to 210 °C. In addition, in data set [4], the “FRET activity (<50 uM)” value is on record as “Inactive”.

For `COc1cc(OC)c2c(=O)[nH]c(-c3ccc(OCCN4CCCC4)c(C)c3)nc2c1` [Example 73, 5,7-Dimethoxy-2-(3-methyl-4-(2-(pyrrolidin-1-yl)ethoxy)phenyl)quinazolin-4(3H)-one], the melting point fell in the range of 230 to 231 °C. Besides, in data set [4], the “FRET activity (<50 uM)” value is reported as “Active”. Also, the “c-myc activity (<30 uM)” value in data set [5] is listed as “Active”.

With `COc1cc(OCCN2CCCC2)cc(-c2nc3cc(OC)cc(OC)c3c(=O)[nH]2)c1` [Example 114, 5,7-Dimethoxy-2-(3-methoxy-5-(2-(pyrrolidin-1-yl)ethoxy)phenyl)quinazolin-4(3H)-one], the melting point fell in the range of 159 to 160 °C. Moreover, in data set [4], the “FRET activity (<50 uM)” value is “Active”. For the same compound, in data set [5], the “c-myc activity (<30 uM)” value was “Active”. Further, the “cell proliferation activity (<30 uM)” value in data set [6] is “Active”.

With `COc1cc(OC)c2c(=O)[nH]c(-c3cc(C)c(OCCn4ccnc4)c(C)c3)nc2c1` [Example 69, 2-(4-(2-(1H-Imidazol-1-yl)ethoxy)-3,5-dimethylphenyl)-5,7-dimethoxyquinazolin-4(3H)-one], the melting point lay within 218 to 219 °C. For the same compound, in data set [4], the “FRET activity (<50 uM)” value is given as “Active”.

Compound `COc1cc(OCCN2CCCC2)cc2nc(-c3cc(C)nc(C)c3)[nH]c(=O)c12` [Example 106, 2-(2,6-Dimethylpyridin-4-yl)-5-methoxy-7-(2-(pyrrolidin-1-yl)ethoxy)quinazolin-4(3H)-one] yielded a melting point of 227 to 229 °C. Also, the “FRET activity (<50 uM)” value in data set [4] is on record as “Active”.

Take `COc1cc(OCCOCc2ccccc2)cc2nc(-c3cc(C)nc(C)c3)[nH]c(=O)c12` [Example 109, 7-(2-(Benzyloxy)ethoxy)-2-(2,6-dimethylpyridin-4-yl)-5-methoxyquinazolin-4(3H)-one]: the melting point was 178 to 180 °C. For the same compound, the “FRET activity (<50 uM)” value in data set [4] was “Active”.

`COc1cc(OC)c2c(=O)[nH]c(-c3cc(C)c(OCCN4CC(NC(C)=O)C4)c(C)c3)nc2c1` [Example 87, N-(1-(2-(4-(5,7-Dimethoxy-4-oxo-3,4-dihydroquinazolin-2-yl)-2,6-dimethylphenoxy)ethyl)azetidin-3-yl)acetamide] registered a melting point of 111.8 to 113.6 °C. For the same compound, the “FRET activity (<50 uM)” value in data set [4] is given as “Active”.

Consider `COc1cc(OC)c2c(=O)[nH]c(-c3cc(C)c(OCCN4CCCCCC4)c(C)c3)nc2c1` [Example 84, 2-(4-(2-(Azepan-1-yl)ethoxy)-3,5-dimethylphenyl)-5,7-dimethoxyquinazolin-4(3H)-one], for which the melting point was 198 to 199 °C. Besides, the “FRET activity (<50 uM)” value in data set [4] was “Active”.

Take `COc1cc(OC)c2c(=O)[nH]c(-c3cccc(OCCO)c3)nc2c1` [Example 112, 2-(3-(2-Hydroxyethoxy)phenyl)-5,7-dimethoxyquinazolin-4(3H)-one]: the melting point lay within 244.8 to 246 °C. In addition, the “FRET activity (<50 uM)” value in data set [4] is given as “Active”.

In turn, `COc1cc(OC)c2c(=O)[nH]c(-c3cc(C)c(CCCN4CCCC4)c(C)c3)nc2c1` [Example 77, 2-(3,5-Dimethyl-4-(3-(pyrrolidin-1-yl)propyl)phenyl)-5,7-dimethoxyquinazolin-4(3H)-one] returned a melting point of 194 to 196 °C. Further, the “FRET activity (<50 uM)” value in data set [4] is given as “Active”.

For `COc1cc(OC)c2c(=O)[nH]c(-c3cc(C)c(OCCN4CCN(C(C)=O)CC4)c(C)c3)nc2c1` [Example 68, 2-(4-(2-(4-Acetylpiperazin-1-yl)ethoxy)-3,5-dimethylphenyl)-5,7-dimethoxyquinazolin-4(3H)-one], the melting point was 213 to 214 °C. The “FRET activity (<50 uM)” value in data set [4] is listed as “Active”.

With `COc1cc(OC)c2c(=O)[nH]c(-c3ccc(OCCN4CCCC4)cc3)nc2c1` [Example 76, 5,7-Dimethoxy-2-(4-(2-(pyrrolidin-1-yl)ethoxy)phenyl)quinazolin-4(3H)-one], the melting point was in the range of 226 to 227 °C. Moreover, the “FRET activity (<50 uM)” value in data set [4] is “Active”.

On to `COc1cc(OC)c2c(=O)[nH]c(-c3ccc(Cc4nnn[nH]4)cc3)nc2c1` [Example 96, 2-(4-((1H-Tetrazol-5-yl)methyl)phenyl)-5,7-dimethoxyquinazolin-4(3H)-one], for which the melting point lay within 295 to 296 °C. Also, the “FRET activity (<50 uM)” value in data set [4] is “Active”.

Compound `COc1cc(OCCNC(C)=O)cc(-c2nc3cc(OC)cc(OC)c3c(=O)[nH]2)c1` [Example 115, N-(2-(3-(5,7-dimethoxy-4-oxo-3,4-dihydroquinazolin-2-yl)-5-methoxyphenoxy)ethyl)acetamide] had a melting point of 264 to 265 °C. In addition, the “FRET activity (<50 uM)” value in data set [4] was “Inactive”. In addition, in data set [5], the “c-myc activity (<30 uM)” value is “Inactive”. Further, the “cell proliferation activity (<30 uM)” value in data set [6] is recorded as “Active”.

The compound `COCCOc1cc(OCCN2CCCC2)c2c(=O)[nH]c(-c3cc(C)nc(C)c3)nc2c1` [Example 111, 2-(2,6-Dimethylpyridin-4-yl)-7-(2-methoxyethoxy)-5-(2-(pyrrolidin-1-yl)ethoxy)quinazolin-4(3H)-one] gave a melting point of 60.4 to 62.3 °C. Further, the “FRET activity (<50 uM)” value in data set [4] is listed as “Active”.

`COc1cc(OCCN2CCCC2)c2c(=O)[nH]c(-c3cc(C)nc(C)c3)nc2c1` [Example 102, 2-(2,6-Dimethylpyridin-4-yl)-7-methoxy-5-(2-(pyrrolidin-1-yl)ethoxy)quinazolin-4(3H)-one] showed a melting point of 190 to 191 °C. The “FRET activity (<50 uM)” value in data set [4] is recorded as “Active”.

Take `COc1cc(OC)c2c(=O)[nH]c(-c3ccc(N4CCC(O)CC4)cc3)nc2n1` [Example 8, 2-(4-(4-Hydroxypiperidin-1-yl)phenyl)-5,7-dimethoxypyrido[2,3-d]pyrimidin-4(3H)-one]: the melting point lay within 284 to 286 °C. Further, the “FRET activity (<50 uM)” value in data set [4] is “Active”.
